Assay results: patent publication US9757334B2, “Surfactant-stripped micelle compositions with high cargo to surfactant ratio” (The Research Foundation for The State University of New York, priority 2014, dated 2017)

Experiment: Absorbance and peak shift of concentrated solutions
Format: physicochemical
Details: 1000 OD/mL in 10 μm path length versus 1000 fold dilution
Procedure: Characterization of Nanonap Physical and Optical Properties: Size and zeta potential measurement were carried out using dynamic light scattering with a Nano ZS90 Zetasizer (Malvern Instruments). Transmission electron microscopy was performed using a JEM-2010 electron microscope to determine the morphology of an aqueous dispersion of nanonaps negatively stained with 1% uranyl acetate. Absorbance was measured by with a Lambda 35 UV/VIS spectrophotometer (Perkin Elmer) at room temperature using cuvettes with 1 cm path lengths, except for the high-concentrated spectral shifting analysis which used 10 μm path-length cuvettes.
1 Pc and 3 Nc dyes were identified that gave rise to nanonaps with peaks at 600, 707, 793 and 863 nm (FIG. 25a, b). The nanonaps generated absorption spanning the NIR spectrum while maintaining reasonably narrow full-width half-maxima (50-100 nm). Since PA imaging can resolve multiple absorption wavelengths, multi-wavelength classes of nanoparticles are desirable. The PA spectral response of nanonaps aligned with their absorption spectra (FIG. 35). The nanoparticles could be concentrated into fully soluble solutions with absorptions of greater than 1000. […] This was assessed by measuring absorption of a concentrated solution (1000 optical densities (OD)/mL) in a 10 μm path length, and then measuring a 1000 fold dilution of the same solution in a 1 cm path length. […]

Compound: CC1(C)C(/C=C/C=C/C=C/C=C2\N(CCCCS(=O)(=O)O)c3ccc4ccccc4c3C2(C)C)=[N+](CCCCS(=O)(=O)[O-])c2ccc3ccccc3c21 [indocyanine green]
- absorption peak shift upon concentration: large absorption shifts
